# Measurements as given in ChEMBL document CHEMBL5241120, “Insights into the medicinal chemistry of heterocycles integrated with a pyrazolo[1,5-a]pyrimidine scaffold” (RSC Med Chem, 2022).
# Key:
# HeLa = assay: Cytotoxicity against human HeLa cells by MTT assay; format: functional, cell-based
# [1] = system: Panel NCI-60 (60 carcinoma cell lines); assay: Cytotoxicity against human Panel NCI-60 (60 carcinoma cell lines); format: functional; set-up: concentration or dose not given beside the values
# Pseudomonas aeruginosa = assay: Antibacterial activity against Pseudomonas aeruginosa assessed as zone of inhibition; format: functional
# Bacillus subtilis = assay: Antibacterial activity against Bacillus subtilis assessed as zone of inhibition; format: functional
# HepG2 = assay: Cytotoxicity against human HepG2 cells by MTT assay; format: functional, cell-based
# MCF7 = assay: Cytotoxicity against human MCF7 cells by MTT assay; format: functional, cell-based
# SiHa = assay: Cytotoxicity against human SiHa cells by MTT assay; format: functional, cell-based
# Escherichia coli = assay: Antibacterial activity against Escherichia coli assessed as zone of inhibition; format: functional
# Staphylococcus aureus = assay: Antibacterial activity against Staphylococcus aureus assessed as zone of inhibition; format: functional
compound,measurement,setting,value
COc1ccc(-c2cc(C(=O)N3CCN(C(=O)c4ccccc4NCc4cccc5c4OCO5)CC3)nc3cc(-c4ccccc4)nn23)cc1,IC50,HeLa,1.95 µM
COc1ccc(NC(=O)c2c(Nc3ccc(OC)cc3OC)nn3c(-c4ccccc4)cc(-c4ccccc4)nc23)c(OC)c1,Activity,[1],0.5%
NC(=O)c1c(Nc2ccc(Br)cc2)nn2c3c(cnc12)CCCC3,inhibition zone (IZ),Pseudomonas aeruginosa,9 mm
same,inhibition zone (IZ),Bacillus subtilis,9 mm
CC1(C)CC(=O)c2cnc3c(C(N)=O)c(Nc4ccccc4)nn3c2C1,IC50,HepG2,77.6 µM
same,IC50,MCF7,66.5 µM
Nc1nc2c(/N=N/c3ccc(C(F)(F)F)cc3)c(N)nn2c(N)c1/N=N/c1nccs1,IC50,HepG2,4.1 µg/mL
COc1ccc(-c2cc(C(=O)N3CCN(C(=O)c4ccccc4NCc4cccs4)CC3)nc3cc(-c4ccccc4)nn23)cc1OC,IC50,HeLa,1.99 µM
same,IC50,SiHa,1.81 µM
NC(=O)c1c(Nc2ccc(Cl)cc2)nn2c(-c3ccc(Cl)cc3)ccnc12,IC50,HepG2,72.2 µM
COc1ccc(Nc2nn3c(O)cc(C)nc3c2C(=O)Nc2ccccc2)c(OC)c1,Activity,[1],0.5%
CC[C@H](CO)Nc1nc(NCc2ccccc2)c2ncn(C(C)C)c2n1 [SELICICLIB],IC50,HeLa,2.2 µM
same,IC50,SiHa,2.69 µM
COc1cc(CNc2ccccc2C(=O)N2CCN(C(=O)c3cc(-c4ccc(C)cc4)n4nc(-c5ccccc5)cc4n3)CC2)cc(OC)c1OC,IC50,HeLa,1.81 µM
O=C(Nc1ccccc1)c1cnn2c(-c3ccc([N+](=O)[O-])cc3)ccnc12,inhibition zone (IZ),Escherichia coli,11 mm
COc1cc(CNc2ccccc2C(=O)N2CCN(C(=O)c3cc(-c4cc(OC)c(OC)c(OC)c4)n4nc(-c5ccccc5)cc4n3)CC2)cc(OC)c1OC,IC50,HeLa,1.51 µM
same,IC50,SiHa,1.91 µM
NC(=O)c1c(Nc2ccc(Br)cc2)nn2c(-c3ccc(Cl)cc3)ccnc12,inhibition zone (IZ),Staphylococcus aureus,9 mm
Cc1ccc(Nc2nn3c(-c4ccc(Cl)cc4)ccnc3c2C(N)=O)cc1,IC50,HepG2,72.2 µM
COc1ccc(-c2cc(-c3nn4cc(-c5ccncc5)cnc4c3S(=O)(=O)c3ccc([N+](=O)[O-])cc3)on2)cc1,IC50,SiHa,2.1 µM
COc1ccc(Nc2nn3c(-c4ccccc4)cc(-c4ccccc4)nc3c2C(=O)Nc2ccc(C)cc2)c(OC)c1,Activity,[1],0.5%
COc1ccc(-c2cc(C(=O)N3CCN(C(=O)c4ccccc4NCc4ccco4)CC3)nc3cc(-c4ccccc4)nn23)cc1OC,IC50,HeLa,1.56 µM
CNc1nn2c(-c3ccccc3)ccnc2c1C(N)=O,inhibition zone (IZ),Pseudomonas aeruginosa,9 mm
same,inhibition zone (IZ),Bacillus subtilis,9 mm
COc1ccc(-c2cc(-c3nn4cc(-c5ccncc5)cnc4c3S(=O)(=O)c3cc(OC)cc(OC)c3)on2)cc1,IC50,SiHa,0.99 µM
NC(=O)c1c(Nc2ccccc2)nn2c(-c3ccc(F)cc3)ccnc12,IC50,HepG2,72.2 µM
COc1ccc(Nc2nn3c(C)cc(C)nc3c2C(N)=O)c(OC)c1,Activity,[1],0.5%
O=C(c1cc(-c2ccccc2)n2nc(-c3ccccc3)cc2n1)N1CCN(C(=O)c2ccccc2NCc2cccc3c2OCO3)CC1,IC50,HeLa,1.95 µM
COc1ccc(Nc2nn3c(O)cc(C)nc3c2C(=O)Nc2ccc(C)cc2)c(OC)c1,Activity,[1],0.5%
COc1ccc(Nc2nn3c(-c4ccc(Br)cc4)ccnc3c2C(N)=O)cc1,IC50,HepG2,70.3 µM
same,IC50,MCF7,65.3 µM
COc1ccc(Nc2nn3c(C)cc(C)nc3c2C(=O)Nc2ccccc2)c(OC)c1,Activity,[1],0.5%
CCOC(=O)c1cnn(-c2cc(C)nc3c(C#N)cnn23)c1N,inhibition zone (IZ),Escherichia coli,15.4 mm
same,inhibition zone (IZ),Bacillus subtilis,17.1 mm
COc1ccc(Nc2nn3c(N)c(C#N)c(-c4cccc(C)c4)nc3c2C(=O)Nc2ccccc2)cc1,inhibition zone (IZ),Escherichia coli,16 mm
same,inhibition zone (IZ),Bacillus subtilis,20 mm
COc1ccc(Nc2nn3c(O)cc(-c4ccccc4)nc3c2C(N)=O)c(OC)c1,Activity,[1],0.5%
NC(=O)c1c(Nc2ccc(Br)cc2)nn2c(-c3ccc(Br)cc3)ccnc12,inhibition zone (IZ),Staphylococcus aureus,9 mm
same,inhibition zone (IZ),Pseudomonas aeruginosa,9 mm
same,inhibition zone (IZ),Escherichia coli,9 mm
same,inhibition zone (IZ),Bacillus subtilis,9 mm
COc1ccc(Nc2nn3c(-c4cccs4)ccnc3c2C(N)=O)cc1,IC50,HepG2,72.2 µM
Cc1ccc(Nc2nn3c(-c4ccc(Br)cc4)ccnc3c2C(N)=O)cc1,IC50,HepG2,72.2 µM
COc1ccc(NC(=O)c2c(Nc3ccc(OC)cc3OC)nn3c(C)cc(C)nc23)c(OC)c1,Activity,[1],0.5%
NC(=O)c1c(Nc2ccccc2)nn2c(-c3ccc(O)cc3)ccnc12,inhibition zone (IZ),Staphylococcus aureus,9 mm
same,inhibition zone (IZ),Pseudomonas aeruginosa,9 mm
same,inhibition zone (IZ),Escherichia coli,9 mm
same,inhibition zone (IZ),Bacillus subtilis,9 mm
COc1ccc(Nc2nn3c(O)cc(-c4ccccc4)nc3c2C(=O)Nc2ccc(C)cc2)c(OC)c1,Activity,[1],0.5%
COc1ccc(-c2ccnc3c(C(N)=O)c(Nc4ccc(Cl)cc4)nn23)cc1,IC50,HepG2,72.2 µM
O=C(c1cc(-c2ccccc2)n2nc(-c3ccccc3)cc2n1)N1CCN(C(=O)c2ccccc2NCc2ccco2)CC1,IC50,SiHa,1.93 µM
O=C(Nc1ccccc1)c1cnn2c(-c3ccc(Cl)cc3)ccnc12,inhibition zone (IZ),Staphylococcus aureus,17 mm
same,inhibition zone (IZ),Escherichia coli,10 mm
NC(=O)c1c(Nc2ccc(Cl)cc2)nn2c(-c3ccc(Br)cc3)ccnc12,IC50,HepG2,72.2 µM
COc1ccc(-c2cc(-c3nn4cc(-c5ccncc5)cnc4c3S(=O)(=O)c3ccc(OC)cc3)on2)cc1,IC50,SiHa,1.77 µM
O=C(Nc1ccccc1-c1ccnc2c(C(=O)NCc3ccc(F)cc3)cnn12)c1c(Cl)cc(Cl)cc1Cl,IC50,HeLa,8.7 µM
COc1ccc(NC(=O)c2c(Nc3ccc(OC)cc3OC)nn3c(O)cc(C)nc23)c(OC)c1,Activity,[1],0.5%
COc1ccc(Nc2nn3c(N)c(C#N)c(-c4cc(OC)ccc4OC)nc3c2C(=O)Nc2ccc(Cl)cc2)cc1,inhibition zone (IZ),Escherichia coli,16 mm
same,inhibition zone (IZ),Bacillus subtilis,21 mm
NC(=O)c1c(Nc2ccc(Br)cc2)nn2c3c(cnc12)CCC3,inhibition zone (IZ),Pseudomonas aeruginosa,9 mm
same,inhibition zone (IZ),Escherichia coli,11 mm
same,inhibition zone (IZ),Bacillus subtilis,12 mm
COc1ccc(-c2cc(C(=O)N3CCN(C(=O)c4ccccc4NCc4ccco4)CC3)nc3cc(-c4ccccc4)nn23)cc1,IC50,HeLa,1.73 µM
Nc1nn2c(-c3ccc(S(=O)(=O)c4ccccc4)cc3)ccnc2c1/N=N/c1ccccc1,inhibition zone (IZ),Bacillus subtilis,26.5 mm
NC(=O)c1c(Nc2ccc(Br)cc2)nn2c(-c3ccccc3)ccnc12,inhibition zone (IZ),Pseudomonas aeruginosa,9 mm
same,inhibition zone (IZ),Escherichia coli,9 mm
same,inhibition zone (IZ),Bacillus subtilis,9 mm
Cc1cc(-n2ncc3c(=O)n(-c4ccccc4)cnc32)n2ncc(C#N)c2n1,inhibition zone (IZ),Escherichia coli,13.1 mm
same,inhibition zone (IZ),Bacillus subtilis,14.3 mm
CCOC(=O)c1cnc2c(C(=O)Nc3ccccc3)cnn2c1C,inhibition zone (IZ),Escherichia coli,10 mm
COC(=O)c1cnc2c(C(=O)Nc3ccccc3)cnn2c1C,inhibition zone (IZ),Staphylococcus aureus,19 mm
O=C(Nc1ccccc1-c1ccnc2c(C(=O)NCc3ccc(F)cc3)cnn12)c1ccc(Cl)c(Cl)c1,IC50,HeLa,9.6 µM
NC(=O)c1c(Nc2ccccc2)nn2c(-c3ccc(Br)cc3)ccnc12,inhibition zone (IZ),Bacillus subtilis,9 mm
same,IC50,HepG2,76.2 µM
same,IC50,MCF7,64 µM
COc1ccc(-c2ccnc3c(C(=O)Nc4ccccc4)cnn23)cc1,inhibition zone (IZ),Escherichia coli,10 mm
NC(=O)c1c(Nc2ccccc2)nn2c(-c3ccc(Cl)cc3)ccnc12,inhibition zone (IZ),Pseudomonas aeruginosa,9 mm
same,inhibition zone (IZ),Bacillus subtilis,9 mm
same,IC50,HepG2,86.6 µM
same,IC50,MCF7,63.2 µM
COc1ccc(Nc2nn3c(O)cc(C)nc3c2C(N)=O)c(OC)c1,Activity,[1],0.5%
COc1cc(-c2cc(C(=O)N3CCN(C(=O)c4ccccc4NCc4cccc5c4OCO5)CC3)nc3cc(-c4ccccc4)nn23)cc(OC)c1OC,IC50,HeLa,1.76 µM
CCNc1nn2c(-c3ccc(Br)cc3)ccnc2c1C(N)=O,inhibition zone (IZ),Staphylococcus aureus,9 mm
COc1ccc(Nc2nn3c(O)cc(-c4ccccc4)nc3c2C(=O)Nc2ccccc2)c(OC)c1,Activity,[1],0.5%
O=C(Nc1ccccc1)c1cnn2c(-c3ccccc3)ccnc12,inhibition zone (IZ),Staphylococcus aureus,10 mm
same,inhibition zone (IZ),Escherichia coli,10 mm
NC(=O)c1c(Nc2ccc(Br)cc2)nn2c3c(cnc12)CCCCCC3,inhibition zone (IZ),Pseudomonas aeruginosa,9 mm
same,inhibition zone (IZ),Bacillus subtilis,9 mm
COc1ccc(Nc2nn3c(C)cc(C)nc3c2C(=O)Nc2ccc(C)cc2)c(OC)c1,Activity,[1],0.5%
NC(=O)c1c(Nc2ccc(Cl)cc2)nn2c(-c3ccc(F)cc3)ccnc12,IC50,HepG2,72.2 µM
COc1ccc(-c2cc(C(=O)N3CCN(C(=O)c4ccccc4NCc4cc(OC)c(OC)c(OC)c4)CC3)nc3cc(-c4ccccc4)nn23)cc1,IC50,HeLa,1.89 µM
NC(=O)c1c(Nc2ccccc2)nn2c3c(cnc12)CCC3,inhibition zone (IZ),Pseudomonas aeruginosa,9 mm
same,inhibition zone (IZ),Bacillus subtilis,9 mm
COc1ccc(Nc2nn3c(-c4ccccc4)cc(-c4ccccc4)nc3c2C(=O)Nc2ccccc2)c(OC)c1,Activity,[1],0.5%
COc1ccc(NC(=O)c2c(Nc3ccc(OC)cc3OC)nn3c(O)cc(-c4ccccc4)nc23)c(OC)c1,Activity,[1],0.5%
COc1ccc(Nc2nn3c4c(cnc3c2C(=O)Nc2ccc(Cl)cc2)C(=O)CC(C)(C)C4)cc1,IC50,HepG2,72.2 µM
O=C(Nc1ccccc1-c1ccnc2c(C(=O)NCc3ccccc3Cl)cnn12)c1ccc(Cl)c(Cl)c1,IC50,HeLa,9.1 µM
NC(=O)c1c(Nc2ccc(Cl)cc2)nn2c(-c3ccccc3)ccnc12,IC50,HepG2,72.2 µM
